Data on 10 molecules can be found in US8188085B2, “Antifungal agents” (Merck Sharp & Dohme Corp., priority 2008, dated 2012).

Chain of glucan synthase (GS) prepared from Candida albicans MY1055 (O13428 1-1897): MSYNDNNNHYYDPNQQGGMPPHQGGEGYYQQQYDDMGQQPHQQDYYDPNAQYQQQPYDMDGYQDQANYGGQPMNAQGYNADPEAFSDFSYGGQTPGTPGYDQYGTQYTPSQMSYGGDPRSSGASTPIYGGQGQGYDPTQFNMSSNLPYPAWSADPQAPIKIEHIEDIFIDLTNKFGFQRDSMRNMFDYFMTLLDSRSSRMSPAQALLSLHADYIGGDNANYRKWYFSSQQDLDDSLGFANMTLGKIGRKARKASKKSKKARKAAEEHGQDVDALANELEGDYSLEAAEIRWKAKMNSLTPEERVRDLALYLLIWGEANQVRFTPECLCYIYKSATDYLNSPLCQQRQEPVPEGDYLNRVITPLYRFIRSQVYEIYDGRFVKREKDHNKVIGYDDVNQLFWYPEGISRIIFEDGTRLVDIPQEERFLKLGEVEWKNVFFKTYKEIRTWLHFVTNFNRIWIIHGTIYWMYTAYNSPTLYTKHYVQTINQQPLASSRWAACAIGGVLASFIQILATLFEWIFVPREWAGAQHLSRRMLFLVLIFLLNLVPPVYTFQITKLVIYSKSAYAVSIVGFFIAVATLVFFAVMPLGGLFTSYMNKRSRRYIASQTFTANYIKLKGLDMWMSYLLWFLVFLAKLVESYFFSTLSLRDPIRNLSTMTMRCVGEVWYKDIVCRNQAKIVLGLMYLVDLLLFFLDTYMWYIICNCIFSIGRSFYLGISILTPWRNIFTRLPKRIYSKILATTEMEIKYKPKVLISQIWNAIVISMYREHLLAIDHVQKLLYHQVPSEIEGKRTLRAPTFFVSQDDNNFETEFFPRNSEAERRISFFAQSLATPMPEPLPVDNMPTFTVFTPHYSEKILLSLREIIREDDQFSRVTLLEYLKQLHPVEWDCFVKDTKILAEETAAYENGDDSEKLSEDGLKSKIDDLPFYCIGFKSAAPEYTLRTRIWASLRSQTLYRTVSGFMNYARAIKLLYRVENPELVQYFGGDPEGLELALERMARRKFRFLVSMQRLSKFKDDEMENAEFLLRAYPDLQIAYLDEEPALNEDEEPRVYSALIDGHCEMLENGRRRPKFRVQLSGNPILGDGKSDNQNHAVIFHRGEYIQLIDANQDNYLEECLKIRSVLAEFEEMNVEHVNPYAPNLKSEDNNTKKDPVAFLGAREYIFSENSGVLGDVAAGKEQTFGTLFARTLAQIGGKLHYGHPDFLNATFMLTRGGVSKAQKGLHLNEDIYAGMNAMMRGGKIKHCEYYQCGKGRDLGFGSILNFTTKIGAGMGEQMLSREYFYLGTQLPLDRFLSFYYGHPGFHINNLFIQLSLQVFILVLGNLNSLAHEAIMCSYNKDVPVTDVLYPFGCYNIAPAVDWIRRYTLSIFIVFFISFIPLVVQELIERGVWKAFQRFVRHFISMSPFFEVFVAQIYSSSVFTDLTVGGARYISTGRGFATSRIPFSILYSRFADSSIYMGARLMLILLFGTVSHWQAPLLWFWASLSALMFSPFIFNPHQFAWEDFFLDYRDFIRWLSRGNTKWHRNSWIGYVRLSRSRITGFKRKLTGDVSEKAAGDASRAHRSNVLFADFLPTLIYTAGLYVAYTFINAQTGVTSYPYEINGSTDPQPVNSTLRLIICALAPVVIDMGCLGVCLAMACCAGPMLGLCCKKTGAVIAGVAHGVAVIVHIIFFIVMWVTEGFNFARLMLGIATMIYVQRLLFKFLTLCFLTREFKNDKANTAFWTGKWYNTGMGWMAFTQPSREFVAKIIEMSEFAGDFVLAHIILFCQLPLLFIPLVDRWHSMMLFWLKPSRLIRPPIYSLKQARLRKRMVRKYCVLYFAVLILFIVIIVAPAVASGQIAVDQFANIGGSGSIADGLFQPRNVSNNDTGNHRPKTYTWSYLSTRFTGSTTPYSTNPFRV

The assay deals with glucan synthase (GS) prepared from Candida albicans MY1055 (Candida albicans, UniProt O13428). The experiment in a line: Glucan synthase inhibition (polymerization assay, 96-well). The format is biochemical. As to conditions: GS from C. albicans MY1055; 60 min incubation at 22° C.; read-out: Candida Albicans GS IC50 (converted). On the procedure:
The in vitro evaluation of glucan synthase inhibitory activity of compounds was measured in a polymerization assay in 96-well format. Each well contained 100 μL of ^3H-UDPG at 0.5 mM (6000 to 8000 dpm/nmol), 50 mM HEPES pH 7.5 (Sigma), 10% w/v glycerol (Sigma), 1.5 mg/mL bovine serum albumin (Sigma A 9647. Lot 44H0190), 25 mM KF (Fisher), 1 mM EDTA (Gibco ULTRAPURE), 25 μM GTP-γ-S, enzyme sufficient to give 3 to 6 nmoles incorporation during the 60 min incubation at 22° C., and test compound added from wells in 3-fold serial dilutions in 100% DMSO (1 μL/well). The reaction was stopped by the addition of 100 μL of 20% trichloroacetic acid. Plates were chilled for a minimum of 10 min, and precipitated glucan collected by filtration on GF/C plates (Packard UNIFILTER®-96), washed with 5 cycles of water (about 1 mL/well each cycle) using a Packard FILTERMATE HARVESTER. 40 μL/well scintillation fluid (Packard ULTIMA GOLD TM-XR) was added and the sealed plates counted in a WALLAC BETA counter in top-counting mode at an efficiency of approximately 40%.
Stock solutions were stored at 10 mg/mL in DMSO at −20° C. For each new enzyme preparation, the initial titration performed started at 1 mg/mL, which was prepared by making a 10-fold dilution in DMSO (5 μL to 50 μL). 40 μL of this stock was placed in column 12 of a round-bottomed 96-well microtiter plate. 40 μL DMSO was added to columns 1 to 11 in the same row and ten 3-fold serial dilutions performed, by transferring 20 μL from column 12 to column 11 etc., with 4 mixings before each transfer. No test compound was transferred to from column 2 to column 1. Duplicate aliquots of 1 μL of all 12 dilutions were then transferred to the side walls of a 96-well Bioblock 1.1 mL plate (Fisher brand) to create two rows.
Graphs of the primary data were created in PRISM software (the average of two determinations) using PRISM's curve fitting program (sigmoidal dose response non-linear regression). The amount of compound required to inhibit glucan synthase activity by 50% in this assay (IC50−ng/mL) was calculated.
Routine analysis was performed with glucan synthase (GS) prepared from Candida albicans MY1055 by the following procedure: MY1055 was grown in 10 liters YPD medium (10 g yeast extract, 20 g tryptone, 20 g glucose per liter) with vigorous shaking at 30° C., to early stationary phase. Cells were harvested by centrifugation, the pellet was washed and frozen at −70° C. until breakage. Thawed pellets were shaken with an equal volume of breakage buffer (50 mM HEPES pH 7.4, 10% glycerol, 1 mM EDTA, 1 mM PMSF, 1 mM DTT) and 4 times their weight of 0.5 mm acid washed glass beads for 2 hours at 4° C. Extent of breakage was assessed visually at 40× magnification. After low speed centrifugation to remove cell debris, the supernatant was centrifuged at 100,000×g for 60 min. to separate membranes plus ribosomes from cytoplasmic components. Membranes were further washed two additional times with breakage buffer using the same centrifugation conditions and finally suspended in breakage buffer at 25 to 30 mg/mL protein (Biorad) for storage at −70° C. Extraction of GS activity from membranes was performed at a protein concentration of 5 mg/mL in extraction buffer (50 mM NaPO4 pH 7.5, 0.1 M KCl, 0.1M Na citrate, 20% glycerol, 5 μM GTP-γ-S, 1 mM DTT, 1 mM PMSF, 3 μg/mL pepstatin) plus 0.25% W1 by gentle mixing at 4° C. for 60 min, followed by centrifugation at 100,000×g for 60 min. After centrifugation, clear supernatant was removed from a pellet consisting of a hard layer usually with small amounts of gelatinous unextracted membranes above it.
Trapping was initiated immediately by 5-fold dilution in trapping buffer (50 mM HEPES pH 7.5, 10 mM KF, 1 mM EDTA, 2 mg/mL BSA) plus 2.5 mM UDPG and 10 μM GTP-γ-S. After incubation at 25° C. for 60 to 90 minutes, glucan was harvested by low speed centrifugation (3,000×g, 10 min). […]
As to `CN[C@@](C)(CO[C@H]1[C@H](n2ncnc2C(=O)NC(C)C)C[C@@]23COC[C@]1(C)[C@@H]2CC[C@H]1C3=CC[C@@]2(C)[C@H](C(=O)O)[C@@](C)([C@H](C)C(C)C)CC[C@]12C)C(C)C` [Example 38, (1S,4aR,6aS,7R,8R,10aR,10bR,12aR,14R,15R)-15-[[(2R)-2,3-dimethyl-2-(methylamino)butyl]oxy]-8-[(1R)-1,2-dimethylpropyl]-14-[5-[[(1-methylethyl)amino]carbonyl]-1H-1,2,4-triazol-1-yl]-1,6,6a,7,8,9,10,10a,10b,11,12,12a-dodecahydro-1,6a,8,10a-tetramethyl-4H-1,4a-propano-2H-phenanthro[1,2-c]pyran-7-carboxylic acid], the IC50 – broadly, the concentration that inhibits the measured activity by half – was 0.0176 µM. Next, `CC(C)[C@@H](C)[C@@]1(C)CC[C@]2(C)[C@H]3CC[C@@H]4[C@@]5(COC[C@@]4(C)[C@@H](OC[C@](C)(N)C(C)(C)C)[C@H](n4ncnc4C(N)=O)C5)C3=CC[C@@]2(C)[C@@H]1C(=O)O` [Example 44, (1S,4aR,6aS,7R,8R,10aR,10bR,12aR,14R,15R)-14-[5-(aminocarbonyl)-1H-1,2,4-triazol-1-yl]-15-[[(2R)-2-amino-2,3,3-trimethylbutyl]oxy]-8-[(1R)-1,2-dimethylpropyl]-1,6,6a,7,8,9,10,10a,10b,11,12,12a-dodecahydro-1,6a,8,10a-tetramethyl-4H-1,4a-propano-2H-phenanthro[1,2-c]pyran-7-carboxylic acid]: 0.00431 µM. With `CN[C@@](C)(CO[C@H]1[C@H](n2ncnc2C(=O)NC2CC2)C[C@@]23COC[C@]1(C)[C@@H]2CC[C@H]1C3=CC[C@@]2(C)[C@H](C(=O)O)[C@@](C)([C@H](C)C(C)C)CC[C@]12C)C(C)C` [Example 64, (1S,4aR,6aS,7R,8R,10aR,10bR,12aR,14R,15R)-14-[5-[(cyclopropylamino)carbonyl]-1H-1,2,4-triazol-1-yl]-15-[[(2R)-2,3-dimethyl-2-(methylamino)butyl]oxy]-8-[(1R)-1,2-dimethylpropyl]-1,6,6a,7,8,9,10,10a,10b,11,12,12a-dodecahydro-1,6a,8,10a-tetramethyl-4H-1,4a-propano-2H-phenanthro[1,2-c]pyran-7-carboxylic acid], the IC50 was 0.0136 µM. Next, `CN[C@@](C)(CO[C@H]1[C@H](n2ncnc2C(=O)NCCF)C[C@@]23COC[C@]1(C)[C@@H]2CC[C@H]1C3=CC[C@@]2(C)[C@H](C(=O)O)[C@@](C)([C@H](C)C(C)C)CC[C@]12C)C(C)C` [Example 77, (1S,4aR,6aS,7R,8R,10aR,10bR,12aR,14R,15R)-15-[[(2R)-2,3-dimethyl-2-(methylamino)butyl]oxy]-8-[(1R)-1,2-dimethylpropyl]-14-[5-[[(2-fluoroethyl)amino]carbonyl]-1H-1,2,4-triazol-1-yl]-1,6,6a,7,8,9,10,10a,10b,11,12,12a-dodecahydro-1,6a,8,10a-tetramethyl-4H-1,4a-propano-2H-phenanthro[1,2-c]pyran-7-carboxylic acid]: 0.00809 µM; `CC(C)[C@@H](C)[C@@]1(C)CC[C@]2(C)[C@H]3CC[C@@H]4[C@@]5(COC[C@@]4(C)[C@@H](OC[C@](C)(N)C(C)C)[C@H](n4ncnc4C(=O)NCC(F)(F)F)C5)C3=CC[C@@]2(C)[C@@H]1C(=O)O` [Example 80, (1S,4aR,6aS,7R,8R,10aR,10bR,12aR,14R,15R)-15-[[(2R)-2-amino-2,3-dimethylbutyl]oxy]-8-[(1R)-1,2-dimethylpropyl]-14-[5-[[(2,2,2-trifluoroethyl)amino]carbonyl]-1H-1,2,4-triazol-1-yl]-1,6,6a,7,8,9,10,10a,10b,11,12,12a-dodecahydro-1,6a,8,10a-tetramethyl-4H-1,4a-propano-2H-phenanthro[1,2-c]pyran-7-carboxylic acid]: 0.0105 µM. For the molecule `CC(C)[C@@H](C)[C@@]1(C)CC[C@]2(C)[C@H]3CC[C@@H]4[C@@]5(COC[C@@]4(C)[C@@H](OC[C@](C)(N)C(C)C)[C@H](n4ncnc4C(=O)NCCN(C)C)C5)C3=CC[C@@]2(C)[C@@H]1C(=O)O` [Example 83, (1S,4aR,6aS,7R,8R,10aR,10bR,12aR,14R,15R)-15-[[(2R)-2-amino-2,3-dimethylbutyl]oxy]-14-[5-[[[2-(dimethylamino)ethyl]amino]carbonyl]-1H-1,2,4-triazol-1-yl]-8-[(1R)-1,2-dimethylpropyl]-1,6,6a,7,8,9,10,10a,10b,11,12,12a-dodecahydro-1,6a,8,10a-tetramethyl-4H-1,4a-propano-2H-phenanthro[1,2-c]pyran-7-carboxylic acid], the IC50 is 0.012 µM.

For `CC(C)[C@@H](C)[C@@]1(C)CC[C@]2(C)[C@H]3CC[C@@H]4[C@@]5(COC[C@@]4(C)[C@@H](OC[C@](C)(N)C(C)C)[C@H](n4ncnc4C(=O)N4CCOCC4)C5)C3=CC[C@@]2(C)[C@@H]1C(=O)O` [Example 86, (1S,4aR,6aS,7R,8R,10aR,10bR,12aR,14R,15R)-15-[[(2R)-2-amino-2,3-dimethylbutyl]oxy]-8-[(1R)-1,2-dimethylpropyl]-14-[5-(4-morpholinylcarbonyl)-1H-1,2,4-triazol-1-yl]-1,6,6a,7,8,9,10,10a,10b,11,12,12a-dodecahydro-1,6a,8,10a-tetramethyl-4H-1,4a-propano-2H-phenanthro[1,2-c]pyran-7-carboxylic acid], the IC50 is 0.0705 µM. Regarding `CNC(=O)c1ncnn1[C@@H]1C[C@@]23COC[C@](C)([C@@H]2CC[C@H]2C3=CC[C@@]3(C)[C@H](C(=O)O)[C@@](C)([C@H](C)C(C)C)CC[C@]23C)[C@H]1OC[C@](C)(N)C(C)(C)C` [Example 89, (1S,4aR,6aS,7R,8R,10aR,10bR,12aR,14R,15R)-15-[[(2R)-2-amino-2,3,3-trimethylbutyl]oxy]-8-[(1R)-1,2-dimethylpropyl]-14-[5-[(methylamino)carbonyl]-1H-1,2,4-triazol-1-yl]-1,6,6a,7,8,9,10,10a,10b,11,12,12a-dodecahydro-1,6a,8,10a-tetramethyl-4H-1,4a-propano-2H-phenanthro[1,2-c]pyran-7-carboxylic acid], the IC50 is 0.0113 µM. Regarding `CC(C)[C@@H](C)[C@@]1(C)CC[C@]2(C)[C@H]3CC[C@@H]4[C@@]5(COC[C@@]4(C)[C@@H](OC[C@H](N)C(C)(C)C)[C@H](n4ncnc4C(N)=O)C5)C3=CC[C@@]2(C)[C@@H]1C(=O)O` [Example 97, (1S,4aR,6aS,7R,8R,10aR,10bR,12aR,14R,15R)-14-[5-(aminocarbonyl)-1H-1,2,4-triazol-1-yl]-15-[[(2R)-2-amino-3,3-dimethylbutyl]oxy]-8-[(1R)-1,2-dimethylpropyl]-1,6,6a,7,8,9,10,10a,10b,11,12,12a-dodecahydro-1,6a,8,10a-tetramethyl-4H-1,4a-propano-2H-phenanthro[1,2-c]pyran-7-carboxylic acid], the IC50 is 0.0117 µM. `CCCNC(=O)c1ncnn1[C@@H]1C[C@@]23COC[C@](C)([C@@H]2CC[C@H]2C3=CC[C@@]3(C)[C@H](C(=O)O)[C@@](C)([C@H](C)C(C)C)CC[C@]23C)[C@H]1OC[C@@](C)(N)C(C)C` [Example 105, (1S,4aR,6aS,7R,8R,10aR,10bR,12aR,14R,15R)-15-[[(2S)-2-amino-2,3-dimethylbutyl]oxy]-8-[(1R)-1,2-dimethylpropyl]-14-[5-[(propylamino)carbonyl]-1H-1,2,4-triazol-1-yl]-1,6,6a,7,8,9,10,10a,10b,11,12,12a-dodecahydro-1,6a,8,10a-tetramethyl-4H-1,4a-propano-2H-phenanthro[1,2-c]pyran-7-carboxylic acid]: the IC50 was 0.029 µM.
